Test results reported in US7138361B2, “Herbicidal heterocycles” (E. I. du Pont de Nemours and Company, priority 2000, dated 2006).

How the values were obtained:
Format in all cases: in vivo
[1] = system: Sunflower; assay: Test C preemergence; details: Rate 500 g/ha, visual evaluation after 12 to 14 days
[2] = system: lambsquarters (Chenopodium album); assay: Test B postemergence
Procedure, shortened: (§1)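 Post-treatment, species sat 13–15 days under greenhouse conditions before visual scoring against controls, 0 (no effect) through 100 (complete control). Application preemergence to sown seeds or postemergence at 1- to 4-leaf stage, using a non-phytotoxic solvent/surfactant formulation.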

[3] = system: crabgrass (Digitaria sanguinalis); assay: Test B postemergence
Procedure, shortened: as §1

[4] = system: cocklebur (Xanthium strumarium); assay: Test B postemergence
Procedure, shortened: as §1

[5] = system: wild oat (Avena fatua); assay: Test B postemergence
Procedure, shortened: as §1

[6] = system: pigweed (Amaranthus retroflexus); assay: Test C preemergence; details: for Plant response rating (0 to 100), Pigweed: Rate 500 g/ha, visual evaluation after 12 to 14 days
Procedure, shortened: (§2)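 Each compound was dissolved in a non-phytotoxic solvent system containing a surfactant and sprayed either on freshly planted seeds (preemergence) or on young plants, 2 to 18 cm high (postemergence). Ratings after 12 to 14 greenhouse days ran from 0, no effect, to 100, complete control.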

[7] = system: lambsquarters (Chenopodium album); assay: Test C preemergence; details: for Plant response rating (0 to 100), Lambsquarters: Rate 500 g/ha, visual evaluation after 12 to 14 days
Procedure, shortened: as §2

[8] = system: giant foxtail (Setaria faberii); assay: Test C preemergence; details: for Plant response rating (0 to 100), Foxtail, Giant: visual evaluation after 12 to 14 days
Procedure, shortened: as §2

[9] = system: kochia (Kochia scoparia); assay: Test C preemergence; details: for Plant response rating (0 to 100), Kochia: visual evaluation after 12 to 14 days
Procedure, shortened: as §2

[10] = system: johnsongrass (Sorghum halepense); assay: Test C preemergence; details: for Plant response rating (0 to 100), Johnsongrass: visual evaluation after 12 to 14 days
Procedure, shortened: as §2

[11] = system: Surinam grass (Brachiaria decumbens); assay: Test C preemergence; details: for Plant response rating (0 to 100), Surinam grass: visual evaluation after 12 to 14 days
Procedure, shortened: as §2

[12] = system: woolly cupgrass (Eriochloa villosa); assay: Test C preemergence; details: for Plant response rating (0 to 100), Cupgrass, Woolly: visual evaluation after 12 to 14 days
Procedure, shortened: as §2

[13] = system: cocklebur (Xanthium strumarium); assay: Test C preemergence; details: for Plant response rating (0 to 100), Cocklebur: visual evaluation after 12 to 14 days
Procedure, shortened: as §2

[14] = system: bermudagrass (Cynodon dactylon); assay: Test C preemergence; details: for Plant response rating (0 to 100 where 0 is no effect and 100 is complete control), Bermudagrass: visual evaluation after 12 to 14 days
Procedure, shortened: as §2

[15] = system: soybean (Glycine max); assay: Test C preemergence; details: for Plant response rating (0 to 100), Soybean: Rate 500 g/ha, visual evaluation after 12 to 14 days
Procedure, shortened: as §2

[16] = system: common ragweed (Ambrosia elatior); assay: Test C preemergence; details: for Plant response rating (0 to 100), Ragweed, Common: Rate 500 g/ha, visual evaluation after 12 to 14 days
Procedure, shortened: as §2

[17] = system: Nightshade; assay: Test C preemergence
[18] = system: Sunflower; assay: Test C preemergence; details: Rate 125 g/ha; scale 0 to 100, 0 no effect, 100 complete control
[19] = system: velvetleaf (Abutilon theophrasti); assay: Test C preemergence; details: for Plant response rating (0 to 100), Velvetleaf: Rate 500 g/ha, visual evaluation after 12 to 14 days
Procedure, shortened: as §2

[20] = system: corn (Zea mays); assay: Test C preemergence; details: for Plant response rating (0 to 100), Corn: visual evaluation after 12 to 14 days
Procedure, shortened: as §2

[21] = Rate 125 g/ha, scale 0 (no effect) to 100 (complete control), 13 to 15 days
[22] = Rate 500 g/ha, scale 0 to 100, 0 is no effect, 100 is complete control, 13 to 15 days
[23] = Rate 125 g/ha, scale 0 to 100, 0 no effect, 100 complete control
[24] = preemergence, Rate 250 g/ha, scale 0 to 100, 0 no effect, 100 complete control
[25] = Rate 62 g/ha, scale 0 to 100, 0 no effect, 100 complete control
[26] = Rate 250 g/ha, scale 0 to 100, 0 no effect, 100 complete control
[27] = preemergence, Rate 62 g/ha, scale 0 to 100

CCC(C)c1ccn(C2CCN(c3cccc(OC(C)C)c3)C2=O)n1 (stereo not drawn) [Compound 83]
Plant response rating (0 to 100), Sunflower [1]: 70
Plant response rating, Lambsquarters [2, 21]: 10
Plant response rating, Lambsquarters [2, 22]: 60
Plant response rating, Crabgrass [3, 21]: 0
Plant response rating, Crabgrass [3, 22]: 0
Plant response rating, Cocklebur [4, 21]: 10
Plant response rating, Cocklebur [4, 22]: 10
Plant response rating, Wild Oat [5, 21]: 0
Plant response rating, Wild Oat [5, 22]: 0
Plant response rating, Pigweed [6, 23]: 50
Plant response rating (0 to 100), Pigweed ([6]; preemergence): 100
Plant response rating, Pigweed [6, 24]: 100
Plant response rating, Lambsquarters [7, 25]: 100
Plant response rating, Lambsquarters [7, 23]: 100
Plant response rating (0 to 100), Lambsquarters ([7]; preemergence): 100
Plant response rating, Lambsquarters [7, 24]: 100
Plant response rating, Foxtail, Giant [8, 25]: 0
Plant response rating, Foxtail, Giant [8, 23]: 100
Plant response rating (0 to 100), Foxtail, Giant ([8]; preemergence, Rate 250 g/ha): 60
Plant response rating (0 to 100), Foxtail, Giant ([8]; preemergence, Rate 500 g/ha): 0
Plant response rating, Kochia [9, 25]: 60
Plant response rating, Kochia [9, 23]: 90
Plant response rating (0 to 100), Kochia ([9]; preemergence, Rate 250 g/ha): 90
Plant response rating (0 to 100), Kochia ([9]; preemergence, Rate 500 g/ha): 100
Plant response rating, Johnsongrass [10, 25]: 20
Plant response rating, Johnsongrass [10, 23]: 30
Plant response rating (0 to 100), Johnsongrass ([10]; preemergence, Rate 250 g/ha): 30
Plant response rating (0 to 100), Johnsongrass ([10]; preemergence, Rate 500 g/ha): 30
Plant response rating, Surinam grass [11, 25]: 40
Plant response rating, Surinam grass [11, 23]: 50
Plant response rating (0 to 100), Surinam grass ([11]; preemergence, Rate 250 g/ha): 90
Plant response rating (0 to 100), Surinam grass ([11]; preemergence, Rate 500 g/ha): 100
Plant response rating, Cupgrass, Woolly [12, 25]: 80
Plant response rating, Cupgrass, Woolly [12, 23]: 90
Plant response rating (0 to 100), Cupgrass, Woolly ([12]; preemergence, Rate 250 g/ha): 100
Plant response rating (0 to 100), Cupgrass, Woolly ([12]; preemergence, Rate 500 g/ha): 100
Plant response rating, Cocklebur [13, 25]: 0
Plant response rating, Cocklebur [13, 23]: 0
Plant response rating (0 to 100), Cocklebur ([13]; preemergence, Rate 250 g/ha): 30
Plant response rating (0 to 100), Cocklebur ([13]; preemergence, Rate 500 g/ha): 0
Plant response rating, Bermudagrass [14, 25]: 100
Plant response rating, Bermudagrass [14, 23]: 100
Plant response rating (0 to 100 where 0 is no effect and 100 is complete control), Bermudagrass ([14]; preemergence, Rate 250 g/ha): 100
Plant response rating (0 to 100 where 0 is no effect and 100 is complete control), Bermudagrass ([14]; preemergence, Rate 500 g/ha): 100
Plant response rating, Soybean [15, 23]: 0
Plant response rating (0 to 100), Soybean ([15]; preemergence): 10
Plant response rating, Soybean [15, 24]: 0
Plant response rating, Ragweed, Common [16, 23]: 0
Plant response rating (0 to 100), Ragweed, Common ([16]; preemergence): 100
Plant response rating, Ragweed, Common [16, 24]: 0
Plant response rating, Nightshade [17, 25]: 0
Plant response rating, Nightshade [17, 23]: 50
Plant response rating, Nightshade [17, 26]: 60
Plant response rating, Sunflower [18]: 30
Plant response rating, Velvetleaf [19, 23]: 30
Plant response rating (0 to 100), Velvetleaf ([19]; preemergence): 40
Plant response rating, Velvetleaf [19, 24]: 0
Plant response rating, Corn [20, 25]: 0
Plant response rating, Corn [20, 23]: 0
Plant response rating (0 to 100), Corn ([20]; preemergence, Rate 250 g/ha): 0
Plant response rating (0 to 100), Corn ([20]; preemergence, Rate 500 g/ha): 10

CC(C)c1cccc(N2CCC(n3ccc(C(C)(C)C)n3)C2=O)c1 (stereo not drawn) [Compound 111]
Plant response rating (0 to 100), Sunflower [1]: 0
Plant response rating, Lambsquarters [2, 23]: 0
Plant response rating, Lambsquarters [2, 22]: 20
Plant response rating, Crabgrass [3, 23]: 0
Plant response rating, Crabgrass [3, 22]: 30
Plant response rating, Cocklebur [4, 23]: 0
Plant response rating, Cocklebur [4, 22]: 0
Plant response rating, Wild Oat [5, 23]: 0
Plant response rating, Wild Oat [5, 22]: 60
Plant response rating, Pigweed [6, 23]: 20
Plant response rating, Pigweed [6, 27]: 80
Plant response rating (0 to 100), Pigweed ([6]; preemergence): 50
Plant response rating, Pigweed [6, 24]: 20
Plant response rating, Lambsquarters [7, 23]: 85
Plant response rating, Lambsquarters [7, 27]: 70
Plant response rating (0 to 100), Lambsquarters ([7]; preemergence): 100
Plant response rating, Lambsquarters [7, 24]: 100
Plant response rating, Foxtail, Giant [8, 23]: 0
Plant response rating, Foxtail, Giant [8, 27]: 0
Plant response rating (0 to 100), Foxtail, Giant ([8]; preemergence, Rate 500 g/ha): 80
Plant response rating, Foxtail, Giant [8, 24]: 30
Plant response rating, Kochia [9, 23]: 0
Plant response rating, Kochia [9, 27]: 0
Plant response rating (0 to 100), Kochia ([9]; preemergence, Rate 500 g/ha): 0
Plant response rating, Kochia [9, 24]: 0
Plant response rating, Johnsongrass [10, 23]: 0
Plant response rating, Johnsongrass [10, 27]: 0
Plant response rating (0 to 100), Johnsongrass ([10]; preemergence, Rate 500 g/ha): 25
Plant response rating, Johnsongrass [10, 24]: 0
Plant response rating, Surinam grass [11, 23]: 0
Plant response rating, Surinam grass [11, 27]: 0
Plant response rating (0 to 100), Surinam grass ([11]; preemergence, Rate 500 g/ha): 10
Plant response rating, Surinam grass [11, 24]: 0
Plant response rating, Cupgrass, Woolly [12, 23]: 20
Plant response rating, Cupgrass, Woolly [12, 27]: 0
Plant response rating (0 to 100), Cupgrass, Woolly ([12]; preemergence, Rate 500 g/ha): 60
Plant response rating, Cupgrass, Woolly [12, 24]: 60
Plant response rating, Cocklebur [13, 23]: 0
Plant response rating, Cocklebur [13, 27]: 0
Plant response rating (0 to 100), Cocklebur ([13]; preemergence, Rate 500 g/ha): 0
Plant response rating, Cocklebur [13, 24]: 0
Plant response rating, Bermudagrass [14, 23]: 90
Plant response rating, Bermudagrass [14, 27]: 60
Plant response rating (0 to 100 where 0 is no effect and 100 is complete control), Bermudagrass ([14]; preemergence, Rate 500 g/ha): 100
Plant response rating, Bermudagrass [14, 24]: 100
Plant response rating, Soybean [15, 23]: 0
Plant response rating, Soybean [15, 27]: 0
Plant response rating (0 to 100), Soybean ([15]; preemergence): 0
Plant response rating, Soybean [15, 24]: 0
Plant response rating, Ragweed, Common [16, 23]: 0
Plant response rating, Ragweed, Common [16, 27]: 0
Plant response rating (0 to 100), Ragweed, Common ([16]; preemergence): 0
Plant response rating, Ragweed, Common [16, 24]: 0
Plant response rating, Nightshade ([17]; Rate 62 g/ha, scale 0 to 100): 0
Plant response rating, Nightshade [17, 23]: 0
Plant response rating, Nightshade [17, 26]: 0
Plant response rating, Sunflower [18]: 0
Plant response rating, Velvetleaf [19, 23]: 0
Plant response rating, Velvetleaf [19, 27]: 0
Plant response rating (0 to 100), Velvetleaf ([19]; preemergence): 0
Plant response rating, Velvetleaf [19, 24]: 0
Plant response rating, Corn [20, 23]: 0
Plant response rating, Corn [20, 27]: 0
Plant response rating (0 to 100), Corn ([20]; preemergence, Rate 500 g/ha): 0
Plant response rating, Corn [20, 24]: 0
